In ChEMBL document CHEMBL1128875, “Synthesis and biological activity of Para-substituted 3-phenyl docetaxel analogs” (Bioorg Med Chem Lett, 1995):
≈ marks a conversion by molar mass, not a printed value.

Legend:
[1] = tested on: Mus musculus; assay: In vivo antitumor activity against B16 melanoma cells in mice; assay type: functional
[2] = tested on: P388; assay: In vitro cytotoxicity against murine P388 lymphocytic leukemia cells; assay type: functional, cell-based; settings: Mus musculus
[3] = species on record: Mus musculus; assay: Ratio of median tumor weight of the treated mice /control mice; assay type: functional
[4] = target: Tubulin alpha chain (Sus scrofa) (UniProt P02550); assay: Tested for 50% inhibition of the rate of microtubule disassembly to that paclitaxel; assay type: functional
[5] = species on record: Mus musculus; assay: Ratio of median tumor weight of the treated mice /control mice; non evaluable: immediate death after injection (insoluble compound); assay type: ADME, organism-based; settings: in vivo
[6] = species on record: Mus musculus; assay: Ratio of median tumor weight of the treated mice /control mice; non evaluable: delayed toxicity; assay type: organism-based; settings: in vivo

Sequence of Tubulin alpha chain (Sus scrofa) (P02550 whole entry, looked up): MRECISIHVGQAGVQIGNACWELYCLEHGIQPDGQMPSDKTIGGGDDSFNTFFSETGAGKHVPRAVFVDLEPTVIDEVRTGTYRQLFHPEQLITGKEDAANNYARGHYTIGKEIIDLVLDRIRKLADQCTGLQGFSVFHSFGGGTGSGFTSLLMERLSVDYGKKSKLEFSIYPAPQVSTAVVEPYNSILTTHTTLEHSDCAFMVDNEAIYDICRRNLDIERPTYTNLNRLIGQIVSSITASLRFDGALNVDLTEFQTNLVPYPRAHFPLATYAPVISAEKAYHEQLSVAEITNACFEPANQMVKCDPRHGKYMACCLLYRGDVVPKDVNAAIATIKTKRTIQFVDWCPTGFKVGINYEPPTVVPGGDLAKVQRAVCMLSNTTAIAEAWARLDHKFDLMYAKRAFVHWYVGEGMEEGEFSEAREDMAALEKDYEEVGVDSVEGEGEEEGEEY

## CC(=O)O[C@@]12CO[C@@H]1C[C@H](O)[C@@]1(C)C(=O)[C@H](O)C3=C(C)[C@@H](OC(=O)[C@H](O)[C@@H](NC(=O)OC(C)(C)C)c4ccc(-c5ccccc5)cc4)C[C@@](O)([C@@H](OC(=O)c4ccccc4)[C@H]21)C3(C)C
[1]
  Max tolerated dose: 35 mg/kg/day
[2]
  IC50: 0.65 µg/mL (≈ 0.735 µM)
[3]
  T/C: 40%
[4]
  IC50 ratio: 2

## CC(=O)O[C@@]12CO[C@@H]1C[C@H](O)[C@@]1(C)C(=O)[C@H](O)C3=C(C)[C@@H](OC(=O)[C@H](O)[C@@H](NC(=O)OC(C)(C)C)c4ccc(C)cc4)C[C@@](O)([C@@H](OC(=O)c4ccccc4)[C@H]21)C3(C)C
[1]
  Max tolerated dose: 15.5 mg/kg/day
[2]
  IC50: 0.04 µg/mL (≈ 0.0487 µM)
[3]
  T/C: 8%
[4]
  IC50 ratio: 1.3

## CC(=O)O[C@@]12CO[C@@H]1C[C@H](O)[C@@]1(C)C(=O)[C@H](O)C3=C(C)[C@@H](OC(=O)[C@H](O)[C@@H](NC(=O)OC(C)(C)C)c4ccccc4)C[C@@](O)([C@@H](OC(=O)c4ccccc4)[C@H]21)C3(C)C.O.O.O [DOCETAXEL]
[1]
  Max tolerated dose: 13.4 mg/kg/day
[2]
  IC50: 0.04 µg/mL
[3]
  T/C: 0%
[4]
  IC50 ratio: 0.64

## C#Cc1ccc([C@H](NC(=O)OC(C)(C)C)[C@@H](O)C(=O)O[C@H]2C[C@@]3(O)[C@@H](OC(=O)c4ccccc4)[C@@H]4[C@]5(OC(C)=O)CO[C@@H]5C[C@H](O)[C@@]4(C)C(=O)[C@H](O)C(=C2C)C3(C)C)cc1
[1]
  Max tolerated dose: 21.7 mg/kg/day
[2]
  IC50: 0.085 µg/mL (≈ 0.102 µM)
[3]
  T/C: 15%
[4]
  IC50 ratio: 0.6

## CC(=O)O[C@@]12CO[C@@H]1C[C@H](O)[C@@]1(C)C(=O)[C@H](O)C3=C(C)[C@@H](OC(=O)[C@H](O)[C@@H](NC(=O)OC(C)(C)C)c4ccc(C(C)=O)cc4)C[C@@](O)([C@@H](OC(=O)c4ccccc4)[C@H]21)C3(C)C
[1]
  Max tolerated dose: 35.3 mg/kg/day
[2]
  IC50: 0.19 µg/mL (≈ 0.224 µM)
[3]
  T/C: 10%
[4]
  IC50 ratio: 0.95

## C=Cc1ccc([C@H](NC(=O)OC(C)(C)C)[C@@H](O)C(=O)O[C@H]2C[C@@]3(O)[C@@H](OC(=O)c4ccccc4)[C@@H]4[C@]5(OC(C)=O)CO[C@@H]5C[C@H](O)[C@@]4(C)C(=O)[C@H](O)C(=C2C)C3(C)C)cc1
[1]
  Max tolerated dose: 38.3 mg/kg/day
[2]
  IC50: 0.06 µg/mL (≈ 0.0719 µM)
[3]
  T/C: 19%
[4]
  IC50 ratio: 0.7

## CC(=O)O[C@@]12CO[C@@H]1C[C@H](O)[C@@]1(C)C(=O)[C@H](O)C3=C(C)[C@@H](OC(=O)[C@H](O)[C@@H](NC(=O)OC(C)(C)C)c4ccc(C=O)cc4)C[C@@](O)([C@@H](OC(=O)c4ccccc4)[C@H]21)C3(C)C
[1]
  Max tolerated dose: <13.4 mg/kg/day
[2]
  IC50: 0.13 µg/mL (≈ 0.156 µM)
[5]
  T/C: non evaluable: immediate death after injection (insoluble compound)
[4]
  IC50 ratio: 0.75

## C=C(C)c1ccc([C@H](NC(=O)OC(C)(C)C)[C@@H](O)C(=O)O[C@H]2C[C@@]3(O)[C@@H](OC(=O)c4ccccc4)[C@@H]4[C@]5(OC(C)=O)CO[C@@H]5C[C@H](O)[C@@]4(C)C(=O)[C@H](O)C(=C2C)C3(C)C)cc1
[1]
  Max tolerated dose: 20 mg/kg/day
[2]
  IC50: 0.35 µg/mL (≈ 0.413 µM)
[3]
  T/C: 105%
[4]
  IC50 ratio: 1.8

## CC(=O)O[C@@]12CO[C@@H]1C[C@H](O)[C@@]1(C)C(=O)[C@H](O)C3=C(C)[C@@H](OC(=O)[C@H](O)[C@@H](NC(=O)OC(C)(C)C)c4ccc(C(=O)c5ccccc5)cc4)C[C@@](O)([C@@H](OC(=O)c4ccccc4)[C@H]21)C3(C)C
[1]
  Max tolerated dose: 20 mg/kg/day
[2]
  IC50: > 1 µg/mL
[3]
  T/C: 95%
[4]
  IC50 ratio: 20

## CC(=O)O[C@@]12CO[C@@H]1C[C@H](O)[C@@]1(C)C(=O)[C@H](O)C3=C(C)[C@@H](OC(=O)[C@H](O)[C@@H](NC(=O)OC(C)(C)C)c4ccc(CO)cc4)C[C@@](O)([C@@H](OC(=O)c4ccccc4)[C@H]21)C3(C)C
[1]
  Max tolerated dose: <4.8 mg/kg/day
[6]
  T/C: non evaluable: delayed toxicity
[2]
  IC50: 0.06 µg/mL (≈ 0.0716 µM)
[4]
  IC50 ratio: 0.4
